Earlier results in PubChem BioAssay AID1259409 (Chemical Carcinogenesis Research Information System (CCRIS), 2018).
Several values for one entry are separate records, joined by “and”; a condition that tells them apart may be missing. Equal values may be shown once.

System: rodent chemically induced tumor inhibition, incidence and multiplicity
Experiment: CCRIS tumor inhibitor studies
Settings: Route [Inhibitor]: ORAL, Species: RAT

## O=C(O)c1ccc(O)c(O)c1
Carcinogen: 2-AMINO-1-METHYL-6-PHENYLIMIDAZO[4,5-B]PYRIDINE [105650-23-5], Dose [Inhibitor]: 2,000 PPM IN DIET FOR 4 WK BEGINNING WK PRIOR TO FIRST CARCINOGEN DOSE (STUDY DURATION: 25 WK), Strain/Sex: SPRAGUE-DAWLEY/FEMALE, Target Tissue: Type of Lesion: MAMMARY GLAND: FIBROADENOMA OR DUCTAL CARCINOMA, Dose [Carcinogen]: 85 MG/KG BW 2X/WK FOR 4 WK (STUDY DURATION: 25 WK), Promoter: NONE
  tumour outcome (control, treated, inhibition, significance): 63%, 59%, 6%, not significant
Carcinogen: 4-NITROQUINOLINE-1-OXIDE, 56-57-5, Dose [Inhibitor]: 0, 500 PPM IN DIET FOR 10 WK BEGINNING 1 WK PRIOR TO CARCINOGEN TREATMENT (STUDY DURATION: 32 WK), Strain/Sex: F344/MALE, Target Tissue: Type of Lesion: TONGUE: PAPILLOMA, Dose [Carcinogen]: 20 PPM IN DRINKING WATER FOR 8 WK, Promoter: NONE USED
  tumour outcome (control, treated, inhibition, significance): 3/19 (16%), 3/20 (15%), 6%, not significant and 16%, 15%, 6%, not significant
Carcinogen: 4-NITROQUINOLINE-1-OXIDE, 56-57-5, Dose [Inhibitor]: 0, 500 PPM IN DIET FOR 22 WK BEGINNING 1 WK POST CARCINOGEN TREATMENT (STUDY DURATION: 32 WK), Strain/Sex: F344/MALE, Target Tissue: Type of Lesion: TONGUE: PAPILLOMA, Dose [Carcinogen]: 20 PPM IN DRINKING WATER FOR 8 WK, Promoter: NONE USED
  tumour outcome (control, treated, inhibition, significance): 3/19 (16%), 3/21 (14%), 13%, not significant and 16%, 14%, 13%, not significant
Carcinogen: 4-NITROQUINOLINE-1-OXIDE, 56-57-5, Dose [Inhibitor]: 0, 1000 PPM IN DIET FOR 10 WK BEGINNING 1 WK PRIOR TO CARCINOGEN TREATMENT (STUDY DURATION: 32 WK), Strain/Sex: F344/MALE, Target Tissue: Type of Lesion: TONGUE: PAPILLOMA, Dose [Carcinogen]: 20 PPM IN DRINKING WATER FOR 8 WK, Promoter: NONE USED
  tumour outcome (control, treated, inhibition, significance): 3/19 (16%), 2/19 (11%), 31%, not significant and 16%, 11%, 31%, not significant
Carcinogen: 4-NITROQUINOLINE-1-OXIDE, 56-57-5, Dose [Inhibitor]: 0, 1000 PPM IN DIET FOR 22 WK BEGINNING 1 WK POST CARCINOGEN TREATMENT (STUDY DURATION: 32 WK), Strain/Sex: F344/MALE, Target Tissue: Type of Lesion: TONGUE: PAPILLOMA, Dose [Carcinogen]: 20 PPM IN DRINKING WATER FOR 8 WK, Promoter: NONE USED
  tumour outcome (control, treated, inhibition, significance): 3/19 (16%), 4/19 (21%), -31%, not significant
Carcinogen: 4-NITROQUINOLINE-1-OXIDE, 56-57-5, Dose [Inhibitor]: 0, 2000 PPM IN DIET FOR 10 WK BEGINNING 1 WK PRIOR TO CARCINOGEN TREATMENT (STUDY DURATION: 32 WK), Strain/Sex: F344/MALE, Target Tissue: Type of Lesion: TONGUE: PAPILLOMA, Dose [Carcinogen]: 20 PPM IN DRINKING WATER FOR 8 WK, Promoter: NONE USED
  tumour outcome (control, treated, inhibition, significance): 3/19 (16%), 2/21 (10%), 38%, not significant and 16%, 10%, 38%, not significant
Carcinogen: 4-NITROQUINOLINE-1-OXIDE, 56-57-5, Dose [Inhibitor]: 0, 2000 PPM IN DIET FOR 22 WK BEGINNING 1 WK POST CARCINOGEN TREATMENT (STUDY DURATION: 32 WK), Strain/Sex: F344/MALE, Target Tissue: Type of Lesion: TONGUE: PAPILLOMA, Dose [Carcinogen]: 20 PPM IN DRINKING WATER FOR 8 WK, Promoter: NONE USED
  tumour outcome (control, treated, inhibition, significance): 3/19 (16%), 2/20 (10%), 38%, not significant and 16%, 10%, 38%, not significant
Carcinogen: AZOXYMETHANE, 24843-45-2, Dose [Inhibitor]: 0, 500 PPM IN DIET FOR 28 WK BEGINNING 1 WK POST CARCINOGEN TREATMENT (STUDY DURATION: 32 WK), Strain/Sex: F344/MALE, Target Tissue: Type of Lesion: COLON: ADENOMA, Dose [Carcinogen]: 15 MG/KG BW 1/WK FOR 3 WK, Promoter: NONE USED
  tumour outcome (control, treated, inhibition, significance): 10%, 15%, -50%, not significant
Carcinogen: AZOXYMETHANE, 25843-45-2, Dose [Inhibitor]: 0, 250 PPM IN DIET FOR 4 WK BEGINNING 1 WK PRIOR TO CARCINOGEN TREATMENT (STUDY DURATION: 32 WK), Strain/Sex: F344/MALE, Target Tissue: Type of Lesion: COLON: ADENOCARCINOMA, Dose [Carcinogen]: 15 MG/KG BW 1/WK FOR 3 WK, Promoter: NONE USED
  tumour outcome (control, treated, inhibition, significance): 75%, 40%, 47%, not significant
Carcinogen: AZOXYMETHANE, 25843-45-2, Dose [Inhibitor]: 0, 250 PPM IN DIET FOR 4 WK BEGINNING 1 WK PRIOR TO CARCINOGEN TREATMENT (STUDY DURATION: 32 WK), Strain/Sex: F344/MALE, Target Tissue: Type of Lesion: COLON: ADENOMA, Dose [Carcinogen]: 15 MG/KG BW 1/WK FOR 3 WK, Promoter: NONE USED
  tumour outcome (control, treated, inhibition, significance): 10%, 5%, 50%, not significant
Carcinogen: AZOXYMETHANE, 25843-45-2, Dose [Inhibitor]: 0, 250 PPM IN DIET FOR 4 WK BEGINNING 1 WK PRIOR TO CARCINOGEN TREATMENT (STUDY DURATION: 32 WK), Strain/Sex: F344/MALE, Target Tissue: Type of Lesion: LARGE INTESTINE: ADENOCARCINOMA, Dose [Carcinogen]: 15 MG/KG BW 1/WK FOR 3 WK, Promoter: NONE USED
  tumour outcome (control, treated, inhibition, significance): 15/20 (75%), 8/20 (40%), 47%, not significant
Carcinogen: AZOXYMETHANE, 25843-45-2, Dose [Inhibitor]: 0, 250 PPM IN DIET FOR 4 WK BEGINNING 1 WK PRIOR TO CARCINOGEN TREATMENT (STUDY DURATION: 32 WK), Strain/Sex: F344/MALE, Target Tissue: Type of Lesion: LARGE INTESTINE: ADENOMA, Dose [Carcinogen]: 15 MG/KG BW 1/WK FOR 3 WK, Promoter: NONE USED
  tumour outcome (control, treated, inhibition, significance): 2/20 (10%), 1/20 (5%), 50%, not significant
Carcinogen: AZOXYMETHANE, 25843-45-2, Dose [Inhibitor]: 0, 250 PPM IN DIET FOR 4 WK BEGINNING 1 WK PRIOR TO CARCINOGEN TREATMENT (STUDY DURATION: 32 WK), Strain/Sex: F344/MALE, Target Tissue: Type of Lesion: SMALL INTESTINE: ADENOCARCINOMA, Dose [Carcinogen]: 15 MG/KG BW 1/WK FOR 3 WK, Promoter: NONE USED
  tumour outcome (control, treated, inhibition, significance): 6/20 (30%), 7/20 (35%), -17%, not significant
Carcinogen: AZOXYMETHANE, 25843-45-2, Dose [Inhibitor]: 0, 250 PPM IN DIET FOR 4 WK BEGINNING 1 WK PRIOR TO CARCINOGEN TREATMENT (STUDY DURATION: 32 WK), Strain/Sex: F344/MALE, Target Tissue: Type of Lesion: SMALL INTESTINE: ADENOMA, Dose [Carcinogen]: 15 MG/KG BW 1/WK FOR 3 WK, Promoter: NONE USED
  tumour outcome (control, treated, inhibition, significance): 1/20 (5%), 0/20 (0%), 100%, not significant
Carcinogen: AZOXYMETHANE, 25843-45-2, Dose [Inhibitor]: 0, 250 PPM IN DIET FOR 28 WK BEGINNING 1 WK POST CARCINOGEN TREATMENT (STUDY DURATION: 32 WK), Strain/Sex: F344/MALE, Target Tissue: Type of Lesion: COLON: ADENOCARCINOMA, Dose [Carcinogen]: 15 MG/KG BW 1/WK FOR 3 WK, Promoter: NONE USED
  tumour outcome (control, treated, inhibition, significance): 75%, 40%, 47%, not significant
Carcinogen: AZOXYMETHANE, 25843-45-2, Dose [Inhibitor]: 0, 250 PPM IN DIET FOR 28 WK BEGINNING 1 WK POST CARCINOGEN TREATMENT (STUDY DURATION: 32 WK), Strain/Sex: F344/MALE, Target Tissue: Type of Lesion: COLON: ADENOMA, Dose [Carcinogen]: 15 MG/KG BW 1/WK FOR 3 WK, Promoter: NONE USED
  tumour outcome (control, treated, inhibition, significance): 10%, 20%, -100%, not significant
Carcinogen: AZOXYMETHANE, 25843-45-2, Dose [Inhibitor]: 0, 250 PPM IN DIET FOR 28 WK BEGINNING 1 WK POST CARCINOGEN TREATMENT (STUDY DURATION: 32 WK), Strain/Sex: F344/MALE, Target Tissue: Type of Lesion: LARGE INTESTINE: ADENOCARCINOMA, Dose [Carcinogen]: 15 MG/KG BW 1/WK FOR 3 WK, Promoter: NONE USED
  tumour outcome (control, treated, inhibition, significance): 15/20 (75%), 8/20 (40%), 47%, not significant
Carcinogen: AZOXYMETHANE, 25843-45-2, Dose [Inhibitor]: 0, 250 PPM IN DIET FOR 28 WK BEGINNING 1 WK POST CARCINOGEN TREATMENT (STUDY DURATION: 32 WK), Strain/Sex: F344/MALE, Target Tissue: Type of Lesion: LARGE INTESTINE: ADENOMA, Dose [Carcinogen]: 15 MG/KG BW 1/WK FOR 3 WK, Promoter: NONE USED
  tumour outcome (control, treated, inhibition, significance): 2/20 (10%), 4/20 (20%), -100%, not significant
Carcinogen: AZOXYMETHANE, 25843-45-2, Dose [Inhibitor]: 0, 250 PPM IN DIET FOR 28 WK BEGINNING 1 WK POST CARCINOGEN TREATMENT (STUDY DURATION: 32 WK), Strain/Sex: F344/MALE, Target Tissue: Type of Lesion: SMALL INTESTINE: ADENOCARCINOMA, Dose [Carcinogen]: 15 MG/KG BW 1/WK FOR 3 WK, Promoter: NONE USED
  tumour outcome (control, treated, inhibition, significance): 6/20 (30%), 5/20 (25%), 17%, not significant
Carcinogen: AZOXYMETHANE, 25843-45-2, Dose [Inhibitor]: 0, 250 PPM IN DIET FOR 28 WK BEGINNING 1 WK POST CARCINOGEN TREATMENT (STUDY DURATION: 32 WK), Strain/Sex: F344/MALE, Target Tissue: Type of Lesion: SMALL INTESTINE: ADENOMA, Dose [Carcinogen]: 15 MG/KG BW 1/WK FOR 3 WK, Promoter: NONE USED
  tumour outcome (control, treated, inhibition, significance): 1/20 (5%), 0/20 (0%), 100%, not significant
